Assay results: article PMC11836371, “Virtual fragment screening for DNA repair inhibitors in vast chemical space” (Nature Communications, 2025)
Where “and” joins values, the source holds several entries; their conditions need not be identical. Equal entries are not always repeated.

Experiments:
SMUG1 = target: T1, SMUG1 (Homo sapiens, UniProt Q53HV7); assay: BER enzyme selectivity assay, SMUG1; type: biochemical; details: Figure 3B, three independent experiments
T1 construct: purchased New England Biolabs M0336
T1 sequence (Q53HV7 1-270): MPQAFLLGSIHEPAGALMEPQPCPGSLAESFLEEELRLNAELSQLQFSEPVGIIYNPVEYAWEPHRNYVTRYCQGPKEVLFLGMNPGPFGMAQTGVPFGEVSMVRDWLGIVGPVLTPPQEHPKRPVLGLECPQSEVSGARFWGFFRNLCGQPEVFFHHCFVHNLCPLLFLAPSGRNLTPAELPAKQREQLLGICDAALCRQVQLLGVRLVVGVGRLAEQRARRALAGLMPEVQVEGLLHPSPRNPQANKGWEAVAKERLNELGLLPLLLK
Description: (§2) Inhibition of the following enzymes was assessed in the selectivity assays: apurinic/apyrimidinic endonuclease (APE1), endonuclease 8-like 1 (NEIL1), oxidized purine nucleoside triphosphate hydrolase (MTH1) and single-strand selective monofunctional uracil DNA glycosylase (SMUG1). BER enzymes were assayed with a similar strategy as OGG1, using identical DNA sequences surrounding the substrate lesion and the same reaction buffer containing 2 nM APE1. To assess SMUG1 inhibition, a 375 nM substrate containing uracil opposite guanine and 0.3 U SMUG1 enzyme (M0336 from New England Biolabs) was used. To assess NEIL1 inhibition, a 20 nM substrate containing thymidine glycol opposite adenine and 10 nM NEIL1 was used. […] All BER inhibition assays were in the linear range and less than 40% of the total substrate had been consumed at readout. The experiments were performed in three independent replicates and the percentage inhibition was calculated relative to the signal of a DMSO-treated control. […] The produced free phosphate was then detected using the malachite green assay[76]. […] Absorbance was read at 630 nm using a Hidex Sense plate reader after a period of incubation with the methylene green reagent of 15 minutes. The experiment was performed in three independent replicates and percentage inhibition was calculated relative to the signal of a DMSO-treated control.

NEIL1 = NEIL1 (Homo sapiens, UniProt Q96FI4); assay: biochemical
Description: as §2

APE1 = APE1 (Homo sapiens, UniProt P27695); assay: biochemical
Description: as §2

BJhTERT cells = assay: Cell viability assay (resazurin), BJhTERT non-transformed control; type: cell-based; details: BJhTERT
Description: (§1) A2780, HCT116, and HEK293T cell lines were authenticated with STR profiling, frozen down, and these stocks were used in experiments. […] All media were supplemented with 10% FBS and 1% P/S. All cell culture media, additives, and reagents were purchased from Thermo Fisher Scientific. The cell plates were incubated 72 hours in a humidified incubator at 37 °C with 5% CO2, after which resazurin (Sigma-Aldrich), 10 µL/well, was added to a final concentration of 10 µg/mL. […] The cell viability was calculated compared to untreated control wells and the EC50 values were determined in XLfit (IDBS).

[1] = as above; type: cell-based; details: human, BJhTERT immortalized fibroblast cells, BJhTERT
Description: as §1

[2] = Plasma protein binding in human plasma (RED); type: in vitro ADME; details: plasma (50% plasma, 50% isotonic buffer), pH 7.4, read-out: Protein plasma binding, fu (%)
Description: Pooled human plasma was provided by Uppsala Academic Hospital and was collected from two donors (non-smoking) (citric acid). In brief, 0.2 mL of the plasma (50% plasma, 50% isotonic buffer) test solution (typically 10 µM final compound concentration) was transferred to the membrane tube in the RED insert (ThermoFisher Scientific). 0.35 ml isotonic phosphate buffer pH 7.4 was added to the other side of the membrane. The 96-well base plate was then sealed with an adhesive plastic film (Scotch Pad) to prevent evaporation. The sample was incubated with rapid rotation (>>900 rpm) on a Kisker rotational incubator at 37 °C for 4 h to achieve equilibrium. Prior to LC-MS/MS analysis the plasma and buffer samples were treated with the addition of Methanol (1:3) containing Warfarin as an internal standard to precipitate proteins. The standard curve was created using the plasma standard. The plate was then sealed, and centrifuged and the supernatant was analyzed by liquid chromatography coupled to triple quadrupole mass spectrometry (LC-MS/MS).

MTH1 = MTH1 (Homo sapiens, UniProt P36639); assay: biochemical
Description: Inhibition of the following enzymes was assessed in the selectivity assays: apurinic/apyrimidinic endonuclease (APE1), endonuclease 8-like 1 (NEIL1), oxidized purine nucleoside triphosphate hydrolase (MTH1) and single-strand selective monofunctional uracil DNA glycosylase (SMUG1). BER enzymes were assayed with a similar strategy as OGG1, using identical DNA sequences surrounding the substrate lesion and the same reaction buffer containing 2 nM APE1. To assess SMUG1 inhibition, a 375 nM substrate containing uracil opposite guanine and 0.3 U SMUG1 enzyme (M0336 from New England Biolabs) was used. To assess NEIL1 inhibition, a 20 nM substrate containing thymidine glycol opposite adenine and 10 nM NEIL1 was used. To assess APE1 inhibition, an UNG2 substrate was pre-treated with E. coli Uracil-DNA glycosylase (New England Biolabs M0280) to generate an AP-site opposite adenine, which was used at 10 nM concentration in the presence of 0.1 nM APE1. All BER inhibition assays were in the linear range and less than 40% of the total substrate had been consumed at readout. The experiments were performed in three independent replicates and the percentage inhibition was calculated relative to the signal of a DMSO-treated control. To assess MTH1 inhibition, MTH1-catalyzed dGTP hydrolysis was coupled to inorganic pyrophosphatase (PPase), thereby releasing inorganic phosphate. The produced free phosphate was then detected using the malachite green assay[76]. […] Substrate concentration at the Km value for the respective substrate was chosen if possible. Inhibition using 100 μM compound was tested in reaction buffer (100 mM Tris-Acetate pH 8.0, 10 mM magnesium acetate, 40 mM NaCl, 1 mM DTT, and 0.005% Tween-20). Samples were incubated with shaking at 22 °C for 15 minutes. The reaction was then stopped by the addition of the malachite green reagent[76]. Absorbance was read at 630 nm using a Hidex Sense plate reader after a period of incubation with the methylene green reagent of 15 minutes. The experiment was performed in three independent replicates and percentage inhibition was calculated relative to the signal of a DMSO-treated control.

A2780 cells = assay: Cancer cell viability assay (resazurin), A2780; type: cell-based; set-up: key to cell viability, cytotoxicity curve (Figure3H): % viability relative to untreated control wells
Description: Three different cancer cell lines A2780 (ovarian cancer, ECACC 93112519), A549 (lung cancer, ATCC 60150896) and HCT116 (colon cancer, ATCC CCL-247), and one immortalized fibroblast cell line (BJhTERT) as control, were seeded in black/clear 384-well plates (Corning #3764), 50 µL/well, containing 11 concentrations, nano-dispensed, dose-response curves of the test compounds. A2780, HCT116, and HEK293T cell lines were authenticated with STR profiling, frozen down, and these stocks were used in experiments. The A2780 cells were cultured in RPMI 1640, the A549 and BJhTERT cells in DMEM, and the HCT116 cells in McCoys 5 A medium. All media were supplemented with 10% FBS and 1% P/S. All cell culture media, additives, and reagents were purchased from Thermo Fisher Scientific. The cell plates were incubated 72 hours in a humidified incubator at 37 °C with 5% CO2, after which resazurin (Sigma-Aldrich), 10 µL/well, was added to a final concentration of 10 µg/mL. The plates were incubated for 6 hours with resazurin followed by fluorescence readings in a Sense plate reader (Hidex), resorufin protocol (ex 544 nm/em 595 nm). The cell viability was calculated compared to untreated control wells and the EC50 values were determined in XLfit (IDBS).

human OGG1 enzyme = human OGG1 enzyme (Homo sapiens, UniProt O15527); assay: Differential scanning fluorimetry (DSF) thermal shift assay; type: binding; set-up: ∆Tm (K): unit of the concentration uncertain; details: for ΔTm: concentration not given
Description: The temperature was increased from 20 °C to 85 °C with 10 readings/degree. Tm values were calculated using an excel template and fitting to the Boltzmann equation in Prism v.6.07 (GraphPad Software).

OGG1-GFP in U2OS cells = target: T2, OGG1-GFP in U2OS cells (Homo sapiens, UniProt O15527); assay: Laser microirradiation assay (OGG1-GFP recruitment to DNA damage sites); type: cell-based; details: 10uM, single-cell replicate traces
T2 construct: expressed in transfected cells
T2 sequence (O15527 whole entry): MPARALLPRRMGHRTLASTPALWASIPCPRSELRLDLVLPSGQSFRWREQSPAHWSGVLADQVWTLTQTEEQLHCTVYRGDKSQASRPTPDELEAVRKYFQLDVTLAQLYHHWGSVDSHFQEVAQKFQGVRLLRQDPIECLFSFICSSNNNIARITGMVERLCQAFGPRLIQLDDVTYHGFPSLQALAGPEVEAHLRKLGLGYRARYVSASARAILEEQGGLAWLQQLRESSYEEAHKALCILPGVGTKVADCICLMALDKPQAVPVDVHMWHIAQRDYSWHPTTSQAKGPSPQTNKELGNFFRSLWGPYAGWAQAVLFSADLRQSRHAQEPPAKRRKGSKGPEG

human OGG1 enzyme, sequence (O15527 whole entry): as above
APE1, sequence (P27695 whole entry, species assumed): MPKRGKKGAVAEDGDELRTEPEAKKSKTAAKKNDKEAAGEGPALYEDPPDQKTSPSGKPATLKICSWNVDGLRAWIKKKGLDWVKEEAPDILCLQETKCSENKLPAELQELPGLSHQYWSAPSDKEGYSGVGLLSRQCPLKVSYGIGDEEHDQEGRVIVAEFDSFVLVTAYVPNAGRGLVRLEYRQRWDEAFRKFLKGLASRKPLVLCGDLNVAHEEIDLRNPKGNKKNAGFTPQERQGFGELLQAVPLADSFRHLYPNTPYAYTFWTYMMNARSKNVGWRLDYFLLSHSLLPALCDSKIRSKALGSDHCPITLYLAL
NEIL1, sequence (Q96FI4 whole entry, species assumed): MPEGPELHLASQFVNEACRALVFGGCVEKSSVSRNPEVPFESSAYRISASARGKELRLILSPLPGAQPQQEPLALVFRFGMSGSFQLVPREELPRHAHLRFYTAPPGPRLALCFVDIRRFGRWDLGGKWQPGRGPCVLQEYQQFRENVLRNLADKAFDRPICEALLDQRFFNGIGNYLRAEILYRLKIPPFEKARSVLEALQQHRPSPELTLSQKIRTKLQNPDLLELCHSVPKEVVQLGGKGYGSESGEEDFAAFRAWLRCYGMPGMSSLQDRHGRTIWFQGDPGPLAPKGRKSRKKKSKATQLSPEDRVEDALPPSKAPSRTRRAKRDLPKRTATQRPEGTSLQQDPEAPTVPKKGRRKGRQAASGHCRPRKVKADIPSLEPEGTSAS

Cc1nc(-c2ccc(CC(=O)Nc3noc4c3CCCC4)cc2)c(C)[nH]1 [compound 17]
IC50 (SMUG1): > 99 µM | IC50 (NEIL1): > 99 µM | IC50 (APE1): > 99 µM | percentage cell viability (BJhTERT cells; 100 μM, two independent experiments): 38.43% | viability at 72 h, 100 µM ([1]; 100 μM, two independent experiments, read-out: percentage cell viability): 28% | fraction unbound at 4 h, 10 µM [2]: 0.014 | IC50 (MTH1): 24.3 µM and 20.6 µM and 24.9 µM | percentage cell viability (A2780 cells; A2780, 100 μM, two independent experiments, 100 µM): 6.29% | viability at 100 µM (A2780 cells; Homo sapiens, A2780, A2780, 100 μM, two independent experiments, read-out: percentage cell viability): 5.42% | ∆Tm (K) (human OGG1 enzyme; 99 μM): 8.1 ± 0.1 K | ∆Tm (K) (human OGG1 enzyme; 99 μM, listed as Compound 17): 8.1 K | ∆Tm (K) (human OGG1 enzyme; 99 (unit uncertain) as printed in sheet footnote): 8.1 ± 0.1 K | ΔTm (human OGG1 enzyme): 8.1 K

O=C(Nc1ccc(I)cc1)N1CCC(n2c(=O)[nH]c3c(Br)cccc32)CC1 [TH5487, reference compound]
OGG1-GFP recruitment to DNA damage sites, intensity normalised to time 0 (Figure3E) (OGG1-GFP in U2OS cells; time 14 s): 1.22 (3×) and 1.25 and 1.18 (2×) and 1.31 and 1.24 and 1.32 (2×) and 1.15 and 1.27 and 1.19 (2×) and 1.28 | OGG1-GFP recruitment to DNA damage sites, intensity normalised to time 0 (Figure3E) (OGG1-GFP in U2OS cells; time 16 s): 1.24 and 1.28 and 1.23 (2×) and 1.18 (2×) and 1.34 and 1.25 and 1.32 and 1.19 and 1.29 and 1.2 and 1.22 and 1.31 and 1.3 | OGG1-GFP recruitment to DNA damage sites, intensity normalised to time 0 (Figure3E) (OGG1-GFP in U2OS cells; time 18 s): 1.25 (2×) and 1.31 (2×) and 1.24 and 1.21 and 1.35 (2×) and 1.26 and 1.18 and 1.2 and 1.3 and 1.22 and 1.23 and 1.33 | OGG1-GFP recruitment to DNA damage sites, intensity normalised to time 0 (Figure3E) (OGG1-GFP in U2OS cells; time 20 s): 1.26 and 1.31 (2×) and 1.24 (3×) and 1.2 and 1.35 and 1.29 and 1.37 and 1.16 and 1.19 and 1.27 and 1.36 and 1.33 | OGG1-GFP recruitment to DNA damage sites, intensity normalised to time 0 (Figure3E) (OGG1-GFP in U2OS cells; time 22 s): 1.27 and 1.32 and 1.28 (3×) and 1.2 and 1.36 and 1.37 (2×) and 1.18 and 1.22 (2×) and 1.34 and 1.25 and 1.35 | OGG1-GFP recruitment to DNA damage sites, intensity normalised to time 0 (Figure3E) (OGG1-GFP in U2OS cells; time 24 s): 1.29 (2×) and 1.32 and 1.25 (2×) and 1.21 and 1.37 (2×) and 1.39 and 1.18 and 1.22 and 1.35 and 1.3 and 1.24 and 1.36 | OGG1-GFP recruitment to DNA damage sites, intensity normalised to time 0 (Figure3E) (OGG1-GFP in U2OS cells; time 26 s): 1.29 (2×) and 1.32 and 1.28 and 1.21 and 1.38 (2×) and 1.4 and 1.19 and 1.22 | cell viability, cytotoxicity curve (Figure3H) (BJhTERT cells; Log conc. (M) 1.69824e-9): 92.09 | cell viability, cytotoxicity curve (Figure3H) (BJhTERT cells; Log conc. (M) 5.12861e-9): 85.03 | cell viability, cytotoxicity curve (Figure3H) (BJhTERT cells; Log conc. (M) 1.51356e-8): 85.22 | cell viability, cytotoxicity curve (Figure3H) (BJhTERT cells; Log conc. (M) 4.57088e-8): 94.5 | cell viability, cytotoxicity curve (Figure3H) (BJhTERT cells; Log conc. (M) 1.38038e-7): 96.92 | cell viability, cytotoxicity curve (Figure3H) (BJhTERT cells; Log conc. (M) 4.0738e-7): 95.59 | cell viability, cytotoxicity curve (Figure3H) (BJhTERT cells; Log conc. (M) 1.23027e-6): 90.96 | cell viability, cytotoxicity curve (Figure3H) (BJhTERT cells; Log conc. (M) 3.71535e-6): 95.28 and 121.4 | cell viability, cytotoxicity curve (Figure3H) (BJhTERT cells; Log conc. (M) 1.12202e-5): 71.74 and 94.42 | cell viability, cytotoxicity curve (Figure3H) (BJhTERT cells; Log conc. (M) 3.31131e-5): 58.03 | cell viability, cytotoxicity curve (Figure3H) (BJhTERT cells; Log conc. (M) 0.0001): 5.96 | viability at 72 h, 1.69824e-09 M ([1]; Log conc. (M) 1.69824e-9, read-out: cell viability, cytotoxicity curve (Figure3H)): 74.4% | viability at 72 h, 5.12861e-09 M ([1]; Log conc. (M) 5.12861e-9, read-out: cell viability, cytotoxicity curve (Figure3H)): 72.6% | viability at 72 h, 1.51356e-08 M ([1]; Log conc. (M) 1.51356e-8, read-out: cell viability, cytotoxicity curve (Figure3H)): 78% | viability at 72 h, 4.57088e-08 M ([1]; Log conc. (M) 4.57088e-8, read-out: cell viability, cytotoxicity curve (Figure3H)): 84% | viability at 72 h, 1.38038e-07 M ([1]; Log conc. (M) 1.38038e-7, read-out: cell viability, cytotoxicity curve (Figure3H)): 81.8% | viability at 72 h, 4.0738e-07 M ([1]; Log conc. (M) 4.0738e-7, read-out: cell viability, cytotoxicity curve (Figure3H)): 80.5% | viability at 72 h, 1.23027e-06 M ([1]; Log conc. (M) 1.23027e-6, read-out: cell viability, cytotoxicity curve (Figure3H)): 81.8% | viability at 72 h, 3.31131e-05 M ([1]; Log conc. (M) 3.31131e-5, read-out: cell viability, cytotoxicity curve (Figure3H)): 47% | viability at 72 h, 0.0001 M ([1]; Log conc. (M) 0.0001, read-out: cell viability, cytotoxicity curve (Figure3H)): 5.37% | fraction unbound at 4 h, 10 µM [2]: 0.001 | cell viability, cytotoxicity curve (Figure3H) (A2780 cells; A2780, Log conc. (M) 1.69824e-9): 121.27 and 94.15 | cell viability, cytotoxicity curve (Figure3H) (A2780 cells; A2780, Log conc. (M) 5.12861e-9): 114.3 and 105.95 | cell viability, cytotoxicity curve (Figure3H) (A2780 cells; A2780, Log conc. (M) 1.51356e-8): 105.54 and 93.28 | cell viability, cytotoxicity curve (Figure3H) (A2780 cells; A2780, Log conc. (M) 4.57088e-8): 111.22 and 83.28 | cell viability, cytotoxicity curve (Figure3H) (A2780 cells; A2780, Log conc. (M) 1.38038e-7): 102.55 and 80.89 | cell viability, cytotoxicity curve (Figure3H) (A2780 cells; A2780, Log conc. (M) 4.0738e-7): 93.7 and 80.77 | cell viability, cytotoxicity curve (Figure3H) (A2780 cells; A2780, Log conc. (M) 1.23027e-6): 109.2 and 106.39 | cell viability, cytotoxicity curve (Figure3H) (A2780 cells; A2780, Log conc. (M) 3.71535e-6): 104.11 and 96.04 | cell viability, cytotoxicity curve (Figure3H) (A2780 cells; A2780, Log conc. (M) 1.12202e-5): 67.93 and 61.64 | cell viability, cytotoxicity curve (Figure3H) (A2780 cells; A2780, Log conc. (M) 3.31131e-5): 4.85 and 2.91 | cell viability, cytotoxicity curve (Figure3H) (A2780 cells; A2780, Log conc. (M) 0.0001): 1.49 and 1.08 | ∆Tm (K) (human OGG1 enzyme; 495 µM): 4.3 K | ∆Tm (K) (human OGG1 enzyme; 495 (unit uncertain) as printed in sheet footnote): 4.3 K | ΔTm (human OGG1 enzyme): 4.3 K
